Measured values taken from PubChem BioAssay AID1249 (Columbia University Molecular Screening Center, 2008).
Active and inactive are the calls of the source. No rule for the calls is given here.

How the values were obtained:
[1] = cellular cytoskeleton assembly phenotype modulators – imaging, high-content imaging, retest and dose response, confirmation (AID 1249); details: cell-based imaging, cytoskeleton assembly phenotype, high content; for cell count: at 10 µM, stronger effect = lower value; for inhibition: at 2 µM, stronger effect = higher value;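 as to all read-outs here: compound exposure lasted 24 h before fixation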;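 as to inhibition: plate controls were untreated cells for no effect and reference compound treated cells for full effect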
[2] = tested on: cell-based imaging, cytoskeleton assembly phenotype, high content; assay: as above

| SMILES | cell count [1] [%] | IC50 [2] | inhibition [1] |
| --- | --- | --- | --- |
| O=C(Nc1nc(-c2ccncc2)cs1)C1COc2ccccc2O1 (stereo not drawn) | 92.2 | > 10 µM (inactive) |  |
| Cc1cc(C)c2nc(SCC(=O)N3CC(=O)Nc4ccccc43)c(C#N)cc2c1 | 51.1 | > 10 µM (inactive) |  |
| COc1cc(C2C3=C(Nc4ncnn42)c2ccccc2CC3)cc(OC)c1OC (stereo not drawn) | 43.2 | 5 µM |  |
| O=C(N/N=C/C(Br)=C\c1ccccc1)c1n[nH]c2c1CCC2 | 33.3 | 0.582 µM |  |
| O=C(CS(=O)c1ccc(C(F)(F)F)cc1[N+](=O)[O-])Oc1ccccc1 (stereo not drawn) | 94.1 | > 10 µM (inactive) |  |
| CCC1=Nc2cc(C(=O)NCCCOC)ccc2Sc2ccccc21 | 29.1 | > 10 µM (inactive) |  |
| CCOc1cc(CNc2ccc3c(c2)OCCO3)cc(Br)c1OC | 37.1 | > 10 µM (inactive) |  |
| Cc1ccc2[nH]c(-c3ccccc3)cc(=O)c2c1 | 41.3 | > 10 µM (inactive) |  |
| Cc1ccc(NC(=O)Cn2nnc(-c3ccccc3NC(=O)c3cccs3)n2)cc1 | 109 | > 10 µM (inactive) |  |
| CCOc1ccccc1C(=O)N1CCN(c2cccc(Cl)c2)CC1 | 36.6 | 1.25 µM |  |
| CCCC1=Nc2cc(C(=O)NCCCOCC)ccc2Sc2ccccc21 | 37.3 | 0.873 µM |  |
| CCCCN1C(=O)/C(=C/C=C2\N(C)c3ccccc3C2(C)C)SC1=S | 94.3 | > 10 µM (inactive) |  |
| Cc1c(C(=O)OCC(C)C)[nH]c2c1C(=O)CC(c1ccco1)C2 (stereo not drawn) | 38.8 | > 10 µM (inactive) |  |
| O=C(N/N=C/C(Br)=C/c1ccccc1)c1n[nH]c2c1CCC2 | 30.8 | 5 µM |  |
| COc1ccc(OC)c(C2C3=C(COC3=O)Nc3cc4c(cc32)OCO4)c1 (stereo not drawn) | 102 | > 10 µM (inactive) |  |
| O=S(=O)(c1ccc2c(c1)C(=NO)c1cc(S(=O)(=O)N3CCCCC3)ccc1-2)N1CCCCC1 | 126 | > 10 µM (inactive) |  |
| N#CC1=C(N)Oc2c(ccc3ccccc23)C1c1cccs1 (stereo not drawn) | 28.9 | > 10 µM (inactive) |  |
| CCOC(=O)Nc1nc(-c2ccccc2)c(C(=O)c2ccccc2)s1 | 53.7 | > 10 µM (inactive) |  |
| O=C1CC(c2cc(Br)ccc2F)c2cc3c(cc2N1)CCC3 (stereo not drawn) | 105 | > 10 µM (inactive) |  |
| CCN(CC)c1ccc2cc(-c3nc4ccccc4[nH]3)c(=O)oc2c1 | 96.6 | > 10 µM (inactive) |  |
| O=C(c1ccc(Br)cc1)c1cc([N+](=O)[O-])ccc1N1CCCCC1 | 81.7 | > 10 µM (inactive) |  |
| Cc1ccc(-c2nc(NC(=O)c3nn(C)cc3[N+](=O)[O-])sc2C)cc1C | 88 | > 10 µM (inactive) |  |

| SMILES | cell count [1] [%] | IC50 [2] | inhibition [1] |
| --- | --- | --- | --- |
| COc1ccc(-c2cc(C(F)(F)F)n3nc(C(=O)Nc4cc(C)on4)cc3n2)cc1OC | 92.1 | > 10 µM (inactive) |  |
| CCSc1nc2ccccc2n1C(=O)/C=C\c1ccc(OC)c(OC)c1 | 111 | > 10 µM (inactive) |  |
| O=C1C(=O)c2ccc(-c3ccccc3)cc2-c2ccccc21 | 111 | > 10 µM (inactive) |  |
| CCN(CC)c1ccc2cc(-c3nc4ccccc4n3C)c(=O)oc2c1 | 99.7 | > 10 µM (inactive) |  |
| O=C(O)C1CCCCC1C(=O)Nc1cc(Cl)ccc1Cl (stereo not drawn) | 94.2 | > 10 µM (inactive) |  |
| COc1cc(N2CCCC2)c(OC)cc1/C=c1/sc2nc3ccccc3n2c1=O | 87.5 | > 10 µM (inactive) |  |
| N#CC1=C2SCC(O)(c3ccccc3)N2C(=O)CC1c1cccs1 (stereo not drawn) | 26.4 | > 10 µM (inactive) |  |
| CC1=CC(C)(C)N(S(=O)(=O)c2ccc(C)cc2)c2cc(C)ccc21 | 90.8 | > 10 µM (inactive) |  |
| COC(=O)C[C@]1(C(=O)OC)CN(C#N)N(c2ccc(Cl)cc2)C12c1ccccc1-c1ccccc12 | 82 | > 10 µM (inactive) |  |
| COc1ccc(CCNc2nnc(Sc3nnnn3-c3ccccc3)s2)cc1OC | 32.1 | 1.87 µM |  |
| Cc1ccc(C(=O)OCn2ncc(Cl)c(Cl)c2=O)cc1 | 1.4 | 3.08 µM |  |
| CCOC(=O)c1[nH]c(C)c(C(=O)N2CCc3ccccc32)c1C | 31.8 | 5 µM |  |
| CCOc1ccc(S(=O)(=O)Nc2cc(OC)ccc2OC)cc1 | 44.2 | > 10 µM (inactive) |  |
| COc1ccc(-c2c/c(=N\c3nc(-c4ccccc4)c(C)s3)c3ccccc3o2)cc1O | 113 | > 10 µM (inactive) |  |
| Cc1cc(C)c(S(=O)(=O)Nc2ccc3c4c(cccc24)CC3)c(C)c1 | 78.5 | > 10 µM (inactive) |  |
| Cn1cc(/C=N/n2cnc3scc(-c4ccc(Cl)cc4)c3c2=O)c2ccccc21 | 60.8 | > 10 µM (inactive) |  |
| CCCOc1ccccc1C1CC(=O)Nc2cc3c(cc21)OCCO3 (stereo not drawn) | 125 | > 10 µM (inactive) |  |
| COc1cc(C2C(C#N)=C(C)NC3=C2C(=O)c2ccccc23)cc(OC)c1OC (stereo not drawn) | 34 | 1.55 µM |  |
| COc1ccccc1-n1cnc2cc(NCc3cccs3)ccc21 | 31.6 | 3.24 µM |  |
| C=CCSc1nc2ccccc2n1C(=O)/C=C/c1cc(OC)c(OC)c(OC)c1 | 102 | > 10 µM (inactive) |  |
| N=c1oc2c3c4c(cc2cc1C(=O)Nc1ccccc1)CCCN4CCC3 | 99.4 | 8.21 µM |  |
| COc1ccc(NS(=O)(=O)c2cc(C)ccc2NC(=O)c2cc(C)oc2C)cc1 | 52 | > 10 µM (inactive) |  |

| SMILES | cell count [1] [%] | IC50 [2] | inhibition [1] |
| --- | --- | --- | --- |
| CC(=O)Nc1ccc(S(=O)(=O)NC2(C(F)(F)F)C(=O)Nc3c2c(=O)[nH]c(=O)n3C)cc1 (stereo not drawn) | 90.8 | > 10 µM (inactive) |  |
| COc1cc2c3nnc(-c4ccc(F)cc4)c-3cn(Cc3ccccc3)c2cc1OC | 86.3 | > 10 µM (inactive) |  |
| CSc1nc(N(C)NC(=O)c2cccc(C)c2)c2ccccc2n1 | 31.6 | > 10 µM (inactive) |  |
| CCCCCOc1ccc(Br)cc1/C(C)=N/NC1=NCCN1 | 19.4 | 5.97 µM |  |
| COc1cc(-c2nnc3n2N=C(c2ccccc2)CS3)cc(OC)c1OC | 90.7 | > 10 µM (inactive) |  |
| Cc1cc(=O)oc2cc(OCC3CC(c4ccccc4Cl)=NO3)ccc12 (stereo not drawn) | 92.5 | > 10 µM (inactive) |  |
| CC1CCC/C=C/C2CC(O)CC2C(O)/C=C/C(=O)O1 (stereo not drawn) | 33.9 | > 10 µM (inactive) |  |
| CC1=C([N+](=O)[O-])C(c2cccc(Br)c2)C2=C(N1)c1ccccc1C2=O (stereo not drawn) | 30.8 | 2.65 µM |  |
| COc1cccc(C(C#N)N2CCCCC2)c1O (stereo not drawn) |  |  | 1.4% (inactive) |
| CN1Cc2cc(C(=O)c3cc(Cl)cc(CSc4ncccn4)c3O)cnc2NC1=O |  |  | 10.6% (inactive) |
| O=C(NC1CC1)c1ccc(S(=O)(=O)NCC2CCCCC2)cc1 |  |  | -2.7% (inactive) |
| C=CCn1c(N)c(C(=O)OCC(C)C)c2nc3ccccc3nc21 |  |  | -0.2% (inactive) |
| Cc1ccccc1NC1=C/C(=N\S(=O)(=O)c2cccs2)c2ccccc2C1=O |  |  | -3.8% (inactive) |
| CCCc1nnc(SCC(=O)O)n1/N=C/c1ccc2c(c1)OCO2 |  |  | -4.9% (inactive) |
| Cc1cccc(NC(=O)Cn2nc(C(F)(F)F)cc2C2CC2)c1 |  |  | -14.3% (inactive) |
| CCCn1nc([N+](=O)[O-])c(C(C#N)c2nc3ccccc3s2)c(Cl)c1=O (stereo not drawn) |  |  | 1.3% (inactive) |
| CCn1c(SCC(=O)NC(C)c2ccccc2)nc2ccccc21 (stereo not drawn) |  |  | 0.7% (inactive) |
| Cn1c(NCc2c[nH]c3ccccc23)nc2ccccc21 |  |  | -13.6% (inactive) |
| COc1cccc(CSc2nc3ccccc3cc2C=O)c1 |  |  | 3.2% (inactive) |
| O=C(COc1ncnc2sccc12)Nc1ccc2c(c1)OCCO2 |  |  | 1.1% (inactive) |
| CCCOC(=O)c1ccc(NC(=O)Oc2ccccc2)cc1 |  |  | -5.5% (inactive) |
| O=C(COC(=O)C1(c2ccccc2F)CCCC1)NC1CCS(=O)(=O)C1 (stereo not drawn) |  |  | -1% (inactive) |

| SMILES | cell count [1] [%] | IC50 [2] | inhibition [1] |
| --- | --- | --- | --- |
| COC(=O)c1ccccc1NC(=O)Cn1c(-c2nonc2N)nc2ccccc21 |  |  | 4.2% (inactive) |
| CCOC(=O)Cn1nnnc1CN(CCc1ccccc1)Cc1cc2cc(CC)ccc2[nH]c1=O |  |  | 1.3% (inactive) |
| CCn1c(=O)c2c(n3cnnc13)-c1ccccc1CC21CCCCC1 |  |  | 5.6% (inactive) |
| Cc1ccc(Nc2nc(CSc3nnnn3C)cs2)cc1 |  |  | -5.6% (inactive) |
| CCN1CCC2(CC1)C(C#N)=C(N)Oc1c2sc2nc(C)cc(C)c12 |  |  | -0.7% (inactive) |
| COc1ccc(OC)c(N(CC(=O)Nc2ccccc2)S(C)(=O)=O)c1 |  |  | 16.3% (inactive) |
| O=C(CN1CCSCC1)N1CCc2[nH]c3ccc(Br)cc3c2C1 |  |  | 5.8% (inactive) |
| O=[N+]([O-])/C=C/c1c(OCc2ccccc2)ccc2ccccc12 |  |  | -14.2% (inactive) |
| CC(C)(C)NC(=O)CSc1nsc(SCC(=O)NC(C)(C)C)c1C#N |  |  | -0.7% (inactive) |
| COC(=O)c1cscc1NC(C)=O |  |  | 13.2% (inactive) |
| CCN1CCN(Cc2c(C)[nH]c3ccc(C(=O)OC)cc3c2=O)CC1 |  |  | -6.7% (inactive) |
| CCN1CCN(CC(=O)Nc2nc3ccc(OC)cc3s2)CC1 |  |  | -8.7% (inactive) |
| Cn1nc(CC(=O)NC2CCCCCC2)c2ccccc2c1=O |  |  | -17.6% (inactive) |
| COc1cc(/C=N/Nc2snc(SC)c2C#N)ccc1O |  |  | -6.6% (inactive) |
| COc1ccc(S(=O)(=O)N2CCCC2C(=O)Nc2ccc(C)cc2)cc1 (stereo not drawn) |  |  | 3.2% (inactive) |
| Cc1noc(C)c1S(=O)(=O)N1CCC2(CC1)OCCO2 |  |  | -7.2% (inactive) |
| Cc1cc(C)c(C#N)c(SCc2nc3ccccc3[nH]2)n1 |  |  | -5.7% (inactive) |
| CC1CC(=O)NN=C1c1ccc(NCCO)c([N+](=O)[O-])c1 (stereo not drawn) |  |  | -4.6% (inactive) |
| S=c1[nH]nc(COc2ccc3c(c2)OCO3)n1-c1ccccc1 |  |  | 6.4% (inactive) |
| CC(=O)N1CN2CN(C(C)=O)CC(C(=O)c3ccccc3)(C2)C1 |  |  | -10.6% (inactive) |
